19 compounds from patent US8952157B2, “Apoptosis-inducing agents for the treatment of cancer and immune and autoimmune diseases” (AbbVie Inc., priority 2008, dated 2015) can be followed below.

The test addresses GST-Bcl-2 (Homo sapiens (Human), UniProt P10415). Description: Time Resolved-Fluorescence Resonance Energy Transfer (TR-FRET) Bcl-2 binding assay. The following applies: GST-Bcl-2 1 nM, F-Bak peptide probe 100 nM, Tb-anti-GST antibody 1 nM; Ki by Wang's equation. The method, boiled down: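 Competition TR-FRET: GST-Bcl-2 with fluorescent Bak peptide probe and Tb-anti-GST antibody, compounds serially diluted from 50 μM (2× start, 10% DMSO).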

GST-Bcl-2, sequence (P10415 whole entry): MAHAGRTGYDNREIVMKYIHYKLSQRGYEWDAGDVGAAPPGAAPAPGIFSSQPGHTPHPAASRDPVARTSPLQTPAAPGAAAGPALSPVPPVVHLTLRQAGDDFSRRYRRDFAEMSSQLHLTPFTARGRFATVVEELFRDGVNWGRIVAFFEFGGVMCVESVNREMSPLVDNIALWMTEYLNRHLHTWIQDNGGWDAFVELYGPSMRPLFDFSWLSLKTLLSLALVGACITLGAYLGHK

As for `CC1(C)CCC(CN2CCN(c3ccc(C(=O)NS(=O)(=O)c4ccc(NC5CCN(C6CCOCC6)CC5)c([N+](=O)[O-])c4)c(Oc4cccc(F)c4Cl)c3)CC2)=C(c2ccc(Cl)cc2)C1` [Example 178, 2-(2-chloro-3-fluorophenoxy)-4-(4-{[2-(4-chlorophenyl)-4,4-dimethylcyclohex-1-en-1-yl]methyl}piperazin-1-yl)-N-({3-nitro-4-[(1-tetrahydro-2H-pyran-4-ylpiperidin-4-yl)amino]phenyl}sulfonyl)benzamide], the Ki came out at 0.175 nM.
Under `Cc1n[nH]c2cccc(Oc3cc(N4CCN(CC5=C(c6ccc(Cl)cc6)CC(C)(C)CC5)CC4)ccc3C(=O)NS(=O)(=O)c3ccc(NC4CCN(C)CC4)c([N+](=O)[O-])c3)c12` [Example 55, 4-(4-((2-(4-chlorophenyl)-4,4-dimethylcyclohex-1-en-1-yl)methyl)piperazin-1-yl)-2-((3-methyl-1H-indazol-4-yl)oxy)-N-((4-((1-methylpiperidin-4-yl)amino)-3-nitrophenyl)sulfonyl)benzamide] stands 0.09 nM.
Under `CC1(C)CCC(CN2CCN(c3ccc(C(=O)NS(=O)(=O)c4ccc(N[C@@H]5CCCN(C(CF)CF)C5)c([N+](=O)[O-])c4)c(Oc4cnc(N)c(Cl)c4)c3)CC2)=C(c2ccc(Cl)cc2)C1` [Example 382, 2-[(6-amino-5-chloropyridin-3-yl)oxy]-4-(4-{[2-(4-chlorophenyl)-4,4-dimethylcyclohex-1-en-1-yl]methyl}piperazin-1-yl)-N-{[4-({(3R)-1-[2-fluoro-1-(fluoromethyl)ethyl]piperidin-3-yl}amino)-3-nitrophenyl]sulfonyl}benzamide] stands 0.114 nM; under `Cc1c[nH]c2cccc(Oc3cc(N4CCN(CC5=C(c6ccc(Cl)cc6)CC(C)(C)CC5)CC4)ccc3C(=O)NS(=O)(=O)c3ccc(NC4CCN(C)CC4)c([N+](=O)[O-])c3)c12` [Example 66, 4-(4-((2-(4-chlorophenyl)-4,4-dimethylcyclohex-1-en-1-yl)methyl)piperazin-1-yl)-2-((3-methyl-1H-indol-4-yl)oxy)-N-((4-((1-methylpiperidin-4-yl)amino)-3-nitrophenyl)sulfonyl)benzamide], 0.592 nM.
Consider `CN1CCC(Nc2ccc(S(=O)(=O)NC(=O)c3ccc(N4CCN(CC5=C(c6ccc(Cl)cc6)CC(C)(C)OC5)CC4)cc3Oc3ccccc3Cl)cc2[N+](=O)[O-])CC1` [Example 38, 2-(2-chlorophenoxy)-4-(4-((4-(4-chlorophenyl)-6,6-dimethyl-5,6-dihydro-2H-pyran-3-yl)methyl)piperazin-1-yl)-N-((4-((1-methylpiperidin-4-yl)amino)-3-nitrophenyl)sulfonyl)benzamide], for which the inhibitory constant (Ki) was 0.013 nM.
Under `CN1CCC(Nc2ccc(S(=O)(=O)NC(=O)c3ccc(N4CCN(CC5=C(c6ccc(Cl)cc6)CCCC5)CC4)cc3Oc3ccccc3Cl)cc2[N+](=O)[O-])CC1` [Example 43, 2-(2-chlorophenoxy)-4-(4-((2-(4-chlorophenyl)cyclohex-1-en-1-yl)methyl)piperazin-1-yl)-N-((4-((1-methylpiperidin-4-yl)amino)-3-nitrophenyl)sulfonyl)benzamide] stands 0.034 nM.
Under `CC1(C)CCC(CN2CCN(c3ccc(C(=O)NS(=O)(=O)c4ccc(NCC5CCC(F)(F)CC5)c([N+](=O)[O-])c4)c(Oc4cnc(N)c(Cl)c4)c3)CC2)=C(c2ccc(Cl)cc2)C1` [Example 396, 2-[(6-amino-5-chloropyridin-3-yl)oxy]-4-(4-{[2-(4-chlorophenyl)-4,4-dimethylcyclohex-1-en-1-yl]methyl}piperazin-1-yl)-N-[(4-{[(4,4-difluorocyclohexyl)methyl]amino}-3-nitrophenyl)sulfonyl]benzamide] stands under 0.01 nM; under `CC1(C)CCC(CN2CCN(c3ccc(C(=O)NS(=O)(=O)c4ccc(NCC5CN(C(CF)CF)CCO5)c([N+](=O)[O-])c4)c(Oc4cnc(N)c(Cl)c4)c3)CC2)=C(c2ccc(Cl)cc2)C1` (stereo not shown) [Example 378, 2-[(6-amino-5-chloropyridin-3-yl)oxy]-4-(4-{[2-(4-chlorophenyl)-4,4-dimethylcyclohex-1-en-1-yl]methyl}piperazin-1-yl)-N-({4-[({4-[2-fluoro-1-(fluoromethyl)ethyl]morpholin-2-yl}methyl)amino]-3-nitrophenyl}sulfonyl)benzamide], under 0.01 nM; under `CCN(CC)C1CCC(Nc2ccc(S(=O)(=O)NC(=O)c3ccc(N4CCN(CC5=C(c6ccc(Cl)cc6)CC(C)(C)CC5)CC4)cc3Oc3cccc(Cl)c3)cc2[N+](=O)[O-])CC1` (stereo not shown) [Example 204, 2-(3-chlorophenoxy)-4-(4-{[2-(4-chlorophenyl)-4,4-dimethylcyclohex-1-en-1-yl]methyl}piperazin-1-yl)-N-[(4-{[4-(diethylamino)cyclohexyl]amino}-3-nitrophenyl)sulfonyl]benzamide], 0.075 nM.
Under `O=C(NS(=O)(=O)c1ccc(NCC2CCOCC2)c([N+](=O)[O-])c1)c1ccc(N2CCN(Cc3ccccc3-c3ccc(Cl)cc3)CC2)cc1Oc1ccc(Cl)cc1` [Example 7, 4-(4-((4′-chloro-1,1′-biphenyl-2-yl)methyl)piperazin-1-yl)-2-(4-chlorophenoxy)-N-((3-nitro-4-((tetrahydro-2H-pyran-4-ylmethyl)amino)phenyl)sulfonyl)benzamide] stands 2.59 nM; under `CN1CCC(Nc2ccc(S(=O)(=O)NC(=O)c3ccc(N4CCN(CC5=C(c6ccc(Cl)cc6)CC(C)(C)CC5)CC4)cc3Oc3cc(F)cc(F)c3Cl)cc2[N+](=O)[O-])CC1` [Example 165, 2-(2-chloro-3,5-difluorophenoxy)-4-(4-{[2-(4-chlorophenyl)-4,4-dimethylcyclohex-1-en-1-yl]methyl}piperazin-1-yl)-N-({4-[(1-methylpiperidin-4-yl)amino]-3-nitrophenyl}sulfonyl)benzamide], 0.12 nM.
Regarding `CC1(C)CCC(CN2CCN(c3ccc(C(=O)NS(=O)(=O)c4ccc(NCC5CCOCC5)c([N+](=O)[O-])c4)c(Oc4cccc(Cl)c4)c3)CC2)=C(c2ccc(Cl)cc2)C1` [Example 246, 2-(3-chlorophenoxy)-4-(4-{[2-(4-chlorophenyl)-4,4-dimethylcyclohex-1-en-1-yl]methyl}piperazin-1-yl)-N-({3-nitro-4-[(tetrahydro-2H-pyran-4-ylmethyl)amino]phenyl}sulfonyl)benzamide], the inhibition constant Ki is 0.065 nM.
Under `CN(C)C(=O)CCc1ccccc1Oc1cc(N2CCN(Cc3ccccc3-c3ccc(Cl)cc3)CC2)ccc1C(=O)NS(=O)(=O)c1ccc(NCC2CCOCC2)c([N+](=O)[O-])c1` [Example 26, 4-(4-((4′-chloro-1,1′-biphenyl-2-yl)methyl)piperazin-1-yl)-2-(2-(3-(dimethylamino)-3-oxopropyl)phenoxy)-N-((3-nitro-4-((tetrahydro-2H-pyran-4-ylmethyl)amino)phenyl)sulfonyl)benzamide] stands 0.511 nM; under `O=C(NS(=O)(=O)c1ccc(NCC2CCOCC2)c([N+](=O)[O-])c1)c1ccc(N2CCN(Cc3ccccc3-c3ccc(Cl)cc3)CC2)cc1Oc1ccccc1Cl` [Example 5, 4-(4-((4′-chloro-1,1′-biphenyl-2-yl)methyl)piperazin-1-yl)-2-(2-chlorophenoxy)-N-((3-nitro-4-((tetrahydro-2H-pyran-4-ylmethyl)amino)phenyl)sulfonyl)benzamide], 0.746 nM.
Under `CC1(C)CCC(CN2CCN(c3ccc(C(=O)NS(=O)(=O)c4ccc(OCC5COCCO5)c([N+](=O)[O-])c4)c(Oc4cc5cc[nH]c5cc4Cl)c3)CC2)=C(c2ccc(Cl)cc2)C1` (stereo not shown) [Example 290, 2-[(6-chloro-1H-indol-5-yl)oxy]-4-(4-{[2-(4-chlorophenyl)-4,4-dimethylcyclohex-1-en-1-yl]methyl}piperazin-1-yl)-N-{[4-(1,4-dioxan-2-ylmethoxy)-3-nitrophenyl]sulfonyl}benzamide] stands 0.251 nM; under `CC1(C)CCC(CN2CCN(c3ccc(C(=O)NS(=O)(=O)c4ccc(NC5CCN(C6CCOCC6)CC5)c([N+](=O)[O-])c4)c(Oc4ccnc(N)c4)c3)CC2)=C(c2ccc(Cl)cc2)C1` [Example 273, 2-[(2-aminopyridin-4-yl)oxy]-4-(4-{[2-(4-chlorophenyl)-4,4-dimethylcyclohex-1-en-1-yl]methyl}piperazin-1-yl)-N-({3-nitro-4-[(1-tetrahydro-2H-pyran-4-ylpiperidin-4-yl)amino]phenyl}sulfonyl)benzamide], 0.516 nM.
Under `CC1(C)CCC(CN2CCN(c3ccc(C(=O)NS(=O)(=O)c4ccc(NCC5CCOCC5)c([N+](=O)[O-])c4)c(Oc4ccc(OCc5ccccc5)nc4)c3)CC2)=C(c2ccc(Cl)cc2)C1` [Example 284, 2-{[6-(benzyloxy)pyridin-3-yl]oxy}-4-(4-{[2-(4-chlorophenyl)-4,4-dimethylcyclohex-1-en-1-yl]methyl}piperazin-1-yl)-N-({3-nitro-4-[(tetrahydro-2H-pyran-4-ylmethyl)amino]phenyl}sulfonyl)benzamide] stands 79.3 nM.
As for `CC1(C)CCC(CN2CCN(c3ccc(C(=O)NS(=O)(=O)c4ccc(NN5CCS(=O)(=O)CC5)c([N+](=O)[O-])c4)c(Oc4cc5cc[nH]c5cc4F)c3)CC2)=C(c2ccc(Cl)cc2)C1` [Example 331, 4-(4-{[2-(4-chlorophenyl)-4,4-dimethylcyclohex-1-en-1-yl]methyl}piperazin-1-yl)-N-({4-[(1,1-dioxidothiomorpholin-4-yl)amino]-3-nitrophenyl}sulfonyl)-2-[(6-fluoro-1H-indol-5-yl)oxy]benzamide], affinity was put at a Ki of 0.238 nM.
Under `CC1(C)CCC(CN2CCN(c3ccc(C(=O)NS(=O)(=O)c4ccc(N[C@@H]5CCN(CC(F)F)C5)c([N+](=O)[O-])c4)c(Oc4cnc(N)c(Cl)c4)c3)CC2)=C(c2ccc(Cl)cc2)C1` [Example 353, 2-[(6-amino-5-chloropyridin-3-yl)oxy]-4-(4-{[2-(4-chlorophenyl)-4,4-dimethylcyclohex-1-en-1-yl]methyl}piperazin-1-yl)-N-[(4-{[(3R)-1-(2,2-difluoroethyl)pyrrolidin-3-yl]amino}-3-nitrophenyl)sulfonyl]benzamide] stands 0.016 nM.
